Patent US20010044447A1 (priority 1999, published 2001)

What was measured:
[1] = test system: motoneurons (trophic activity produced by spinal astrocytes); settings: H. PELUFFO et al., Neuroscience letters, 228, 207-211 (1997); cited from earlier work
[2] = test system: motoneurons (trophic activity produced by spinal astrocytes); format: cell-based, Wistar rats; settings: each product 0.1 μM; astrocyte monolayers exposed 24 hours, conditioned medium taken up 24 hours later; percentage of the number of motoneurons in cultures maintained with BDNF; vehicle alone 44 ± 1.41
Procedure: The motoneurons are plated, at a density of 2500 cells per 35 mm plate, on culture plates previously coated with laminin/ornithine according to the method of A. G. ESTEVEZ et al., J. Neurosci., 18 (3), 923-931 (1998). The cultures are then maintained in L15 medium (GIBCO BRL) containing sodium bicarbonate (22 mM), conalbumin (0.1 mg/ml), putrescine (0.1 mM), insulin (5 μg/ml), sodium selenite (31 nM), glucose (20 mM), progesterone (21 nM), penicillin (100 IU/ml) and streptomycin (100 μg/ml).
The motoneurons thus obtained are composed of large (25-30 μM) and homogeneous neurones with long branched neurites. More than 70% of the cells are immunoreactive for the p75 neurotrophin receptor and the markers Islet 1/2 for the spinal motoneurons. About 70% of the motoneurons die by apoptosis 24 hours after the plating if the culture is carried out in the absence of a trophic factor. […]
The monolayers of astrocytes show a purity of more than 98% determined by immunoreactivity for the glial fibrillary acidic protein (GFAP). […]
The number of motoneurons is evaluated by counting the labelled cells in a surface area of 0.4-1 cm^2 under a microscope with a 200 times magnification.

| Structure (SMILES) | Production, by the astrocytes, of trophic activity for the motoneurons [1] | Motoneuronal survival in % [2] |
| --- | --- | --- |
| Nc1nc2ccc(OC(F)(F)F)cc2s1 [riluzole] | stimulated | – |
| CO[C@]12C[C@@H](COC(=O)c3cncc(Br)c3)CN(C)[C@@H]1Cc1cn(C)c3cccc2c13 [nicergoline, (8 p)-10-methoxy-1,6-dimethylergoline-8-methanol-5-bromonicotinate] | – | 44.5 ± 3.53% |
| CO[C@]12C[C@@H](CO)CN(C)[C@@H]1Cc1cn(C)c3cccc2c13 [lumilysergol, 1,6-dimethyl-8β-hydroxymethyl-10α-methoxyergoline] | – | 57.4 ± 3.53% |
